According to ChEMBL document CHEMBL5291721, “A preclinical secondary pharmacology resource illuminates target-adverse drug reaction associations of marketed drugs” (Nat Commun, 2023):

Tests used:
[1] = target: Acetylcholinesterase (Homo sapiens, UniProt P22303); format: functional
[2] = target: T1, Thromboxane A2 receptor (Homo sapiens, UniProt P21731); format: functional, cell-based
T1 sequence (P21731 whole entry): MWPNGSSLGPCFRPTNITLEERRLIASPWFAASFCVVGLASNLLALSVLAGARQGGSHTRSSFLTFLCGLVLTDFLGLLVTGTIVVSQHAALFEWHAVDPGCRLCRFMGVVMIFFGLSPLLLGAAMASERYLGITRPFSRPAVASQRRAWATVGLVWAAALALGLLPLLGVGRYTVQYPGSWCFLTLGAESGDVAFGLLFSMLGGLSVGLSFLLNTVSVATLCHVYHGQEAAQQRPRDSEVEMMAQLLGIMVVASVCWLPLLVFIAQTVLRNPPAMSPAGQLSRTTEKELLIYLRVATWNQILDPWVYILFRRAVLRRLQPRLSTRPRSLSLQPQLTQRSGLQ

[3] = target: Histamine H3 receptor (Homo sapiens, UniProt Q9Y5N1)
Sequence of Histamine H3 receptor (Q9Y5N1 whole entry): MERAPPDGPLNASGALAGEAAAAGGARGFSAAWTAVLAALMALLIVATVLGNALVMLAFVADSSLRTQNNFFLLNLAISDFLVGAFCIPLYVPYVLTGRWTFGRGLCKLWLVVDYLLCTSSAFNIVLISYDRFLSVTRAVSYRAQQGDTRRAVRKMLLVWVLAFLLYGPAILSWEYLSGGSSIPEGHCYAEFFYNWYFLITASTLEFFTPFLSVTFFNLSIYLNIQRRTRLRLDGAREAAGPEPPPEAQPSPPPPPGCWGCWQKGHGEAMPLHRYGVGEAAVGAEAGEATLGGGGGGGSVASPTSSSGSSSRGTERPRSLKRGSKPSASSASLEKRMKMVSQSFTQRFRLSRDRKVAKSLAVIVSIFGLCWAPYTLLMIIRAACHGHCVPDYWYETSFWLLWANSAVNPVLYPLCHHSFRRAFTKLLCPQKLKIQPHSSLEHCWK

[4] = target: T2, Amine oxidase [flavin-containing] A (Homo sapiens, UniProt P21397); format: functional
T2 sequence (P21397 whole entry): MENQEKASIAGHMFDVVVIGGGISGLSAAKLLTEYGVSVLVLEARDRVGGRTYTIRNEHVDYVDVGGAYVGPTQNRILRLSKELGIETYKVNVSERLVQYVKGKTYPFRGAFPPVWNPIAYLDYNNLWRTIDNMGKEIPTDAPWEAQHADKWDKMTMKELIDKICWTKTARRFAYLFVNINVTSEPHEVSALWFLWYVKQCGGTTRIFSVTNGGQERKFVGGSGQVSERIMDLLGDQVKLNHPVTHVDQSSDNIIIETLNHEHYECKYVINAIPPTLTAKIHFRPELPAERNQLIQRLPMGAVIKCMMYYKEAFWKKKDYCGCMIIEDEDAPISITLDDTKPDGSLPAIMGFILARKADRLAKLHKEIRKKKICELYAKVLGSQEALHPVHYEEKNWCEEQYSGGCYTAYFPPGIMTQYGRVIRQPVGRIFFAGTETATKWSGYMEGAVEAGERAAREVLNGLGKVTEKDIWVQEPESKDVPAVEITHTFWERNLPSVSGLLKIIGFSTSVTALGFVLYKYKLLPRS

[5] = target: T3, Alpha-2A adrenergic receptor (Homo sapiens, UniProt P08913)
T3 sequence (P08913 whole entry): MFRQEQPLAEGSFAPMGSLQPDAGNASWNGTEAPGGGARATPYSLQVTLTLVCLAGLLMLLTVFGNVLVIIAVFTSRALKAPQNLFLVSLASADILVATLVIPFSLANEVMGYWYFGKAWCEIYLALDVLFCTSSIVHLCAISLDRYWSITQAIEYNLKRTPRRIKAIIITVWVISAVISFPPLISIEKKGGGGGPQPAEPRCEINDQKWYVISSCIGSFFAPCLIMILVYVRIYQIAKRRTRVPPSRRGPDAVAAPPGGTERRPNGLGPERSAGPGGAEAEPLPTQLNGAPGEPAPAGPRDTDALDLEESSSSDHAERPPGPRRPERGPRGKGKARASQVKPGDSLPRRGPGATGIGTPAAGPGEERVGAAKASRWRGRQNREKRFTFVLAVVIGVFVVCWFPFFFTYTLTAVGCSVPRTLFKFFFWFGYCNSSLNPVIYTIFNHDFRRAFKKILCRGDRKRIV

[6] = target: T4, 5-hydroxytryptamine receptor 1A (Homo sapiens, UniProt P08908)
T4 sequence (P08908 whole entry): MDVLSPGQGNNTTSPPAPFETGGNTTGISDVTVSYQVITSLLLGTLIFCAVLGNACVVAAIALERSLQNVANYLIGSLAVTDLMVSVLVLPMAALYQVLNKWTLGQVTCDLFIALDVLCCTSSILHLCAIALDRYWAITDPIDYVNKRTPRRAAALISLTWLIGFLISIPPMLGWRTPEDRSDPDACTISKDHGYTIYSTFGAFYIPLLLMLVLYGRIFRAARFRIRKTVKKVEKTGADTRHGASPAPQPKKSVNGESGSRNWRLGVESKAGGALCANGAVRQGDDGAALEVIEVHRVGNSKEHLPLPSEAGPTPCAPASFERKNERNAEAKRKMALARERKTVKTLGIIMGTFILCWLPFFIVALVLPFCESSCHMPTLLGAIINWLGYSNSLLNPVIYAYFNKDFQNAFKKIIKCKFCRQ

[7] = target: Gamma-aminobutyric acid receptor subunit alpha-1 (Rattus norvegicus, UniProt P62813)
Sequence of Gamma-aminobutyric acid receptor subunit alpha-1 (P62813 whole entry): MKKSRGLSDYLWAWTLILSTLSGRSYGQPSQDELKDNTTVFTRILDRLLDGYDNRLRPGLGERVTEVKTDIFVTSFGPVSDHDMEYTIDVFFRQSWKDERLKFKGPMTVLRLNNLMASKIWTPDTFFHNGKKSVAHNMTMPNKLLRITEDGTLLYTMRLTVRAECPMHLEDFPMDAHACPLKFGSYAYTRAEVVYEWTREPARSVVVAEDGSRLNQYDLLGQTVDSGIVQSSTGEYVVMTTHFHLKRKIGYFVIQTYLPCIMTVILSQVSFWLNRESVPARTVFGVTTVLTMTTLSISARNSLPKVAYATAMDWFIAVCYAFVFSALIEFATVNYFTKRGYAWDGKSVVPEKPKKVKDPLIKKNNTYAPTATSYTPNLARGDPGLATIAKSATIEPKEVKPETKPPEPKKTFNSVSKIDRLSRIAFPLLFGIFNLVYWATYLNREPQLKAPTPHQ

[8] = target: 5-hydroxytryptamine receptor 2B (Homo sapiens, UniProt P41595); format: functional, cell-based
Sequence of 5-hydroxytryptamine receptor 2B (P41595 whole entry): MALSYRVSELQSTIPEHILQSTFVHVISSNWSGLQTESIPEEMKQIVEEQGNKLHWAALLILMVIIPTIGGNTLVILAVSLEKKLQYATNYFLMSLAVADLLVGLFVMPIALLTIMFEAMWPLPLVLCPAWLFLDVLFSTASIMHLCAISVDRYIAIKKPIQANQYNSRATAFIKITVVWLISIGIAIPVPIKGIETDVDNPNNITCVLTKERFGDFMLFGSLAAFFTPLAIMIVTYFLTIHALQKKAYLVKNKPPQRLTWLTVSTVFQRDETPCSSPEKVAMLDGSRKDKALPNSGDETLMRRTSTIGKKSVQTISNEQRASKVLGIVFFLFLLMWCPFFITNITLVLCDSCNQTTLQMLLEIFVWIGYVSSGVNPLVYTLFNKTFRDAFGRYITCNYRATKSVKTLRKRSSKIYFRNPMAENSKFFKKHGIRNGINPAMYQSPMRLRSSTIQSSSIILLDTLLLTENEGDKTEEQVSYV

[9] = target: T5, Muscarinic acetylcholine receptor M2 (Homo sapiens, UniProt P08172)
T5 sequence (P08172 whole entry): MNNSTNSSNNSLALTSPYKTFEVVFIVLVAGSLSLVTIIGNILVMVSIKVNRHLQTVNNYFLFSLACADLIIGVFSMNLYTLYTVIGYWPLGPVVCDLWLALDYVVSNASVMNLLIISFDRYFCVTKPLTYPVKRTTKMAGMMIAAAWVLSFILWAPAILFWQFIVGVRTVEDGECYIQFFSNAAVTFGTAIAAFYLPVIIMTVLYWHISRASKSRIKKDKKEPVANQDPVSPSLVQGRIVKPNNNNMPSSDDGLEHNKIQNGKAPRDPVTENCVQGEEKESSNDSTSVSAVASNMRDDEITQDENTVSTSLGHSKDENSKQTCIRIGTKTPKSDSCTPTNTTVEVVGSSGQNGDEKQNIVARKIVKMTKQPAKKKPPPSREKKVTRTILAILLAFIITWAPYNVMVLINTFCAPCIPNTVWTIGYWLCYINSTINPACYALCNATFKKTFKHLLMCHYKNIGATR

[10] = target: Sodium-dependent dopamine transporter (Homo sapiens, UniProt Q01959)
Sequence of Sodium-dependent dopamine transporter (Q01959 whole entry): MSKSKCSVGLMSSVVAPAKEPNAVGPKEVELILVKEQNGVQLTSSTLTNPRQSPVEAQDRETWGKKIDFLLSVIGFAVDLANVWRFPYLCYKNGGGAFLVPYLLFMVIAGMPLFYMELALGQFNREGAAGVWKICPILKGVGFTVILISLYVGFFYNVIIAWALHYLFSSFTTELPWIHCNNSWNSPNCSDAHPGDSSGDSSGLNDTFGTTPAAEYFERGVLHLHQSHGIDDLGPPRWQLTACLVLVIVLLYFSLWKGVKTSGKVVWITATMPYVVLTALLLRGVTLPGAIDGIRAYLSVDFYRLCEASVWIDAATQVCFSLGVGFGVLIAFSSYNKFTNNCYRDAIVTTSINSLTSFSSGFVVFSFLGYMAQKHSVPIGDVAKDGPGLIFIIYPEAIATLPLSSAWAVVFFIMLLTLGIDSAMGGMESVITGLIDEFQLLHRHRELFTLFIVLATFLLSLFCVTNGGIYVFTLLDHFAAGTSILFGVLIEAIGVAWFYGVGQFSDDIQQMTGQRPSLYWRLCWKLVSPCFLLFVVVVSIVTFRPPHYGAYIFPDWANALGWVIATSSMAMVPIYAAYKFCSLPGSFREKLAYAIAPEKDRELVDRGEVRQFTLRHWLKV

[11] = target: cGMP-inhibited 3',5'-cyclic phosphodiesterase 3A (Homo sapiens, UniProt Q14432); format: functional
[12] = target: T1, Thromboxane A2 receptor; format: functional, cell-based; remark: listed apart in the source
[13] = target: 3',5'-cyclic-AMP phosphodiesterase 4A (Homo sapiens, UniProt P27815); format: functional
Sequence of 3',5'-cyclic-AMP phosphodiesterase 4A (P27815 whole entry): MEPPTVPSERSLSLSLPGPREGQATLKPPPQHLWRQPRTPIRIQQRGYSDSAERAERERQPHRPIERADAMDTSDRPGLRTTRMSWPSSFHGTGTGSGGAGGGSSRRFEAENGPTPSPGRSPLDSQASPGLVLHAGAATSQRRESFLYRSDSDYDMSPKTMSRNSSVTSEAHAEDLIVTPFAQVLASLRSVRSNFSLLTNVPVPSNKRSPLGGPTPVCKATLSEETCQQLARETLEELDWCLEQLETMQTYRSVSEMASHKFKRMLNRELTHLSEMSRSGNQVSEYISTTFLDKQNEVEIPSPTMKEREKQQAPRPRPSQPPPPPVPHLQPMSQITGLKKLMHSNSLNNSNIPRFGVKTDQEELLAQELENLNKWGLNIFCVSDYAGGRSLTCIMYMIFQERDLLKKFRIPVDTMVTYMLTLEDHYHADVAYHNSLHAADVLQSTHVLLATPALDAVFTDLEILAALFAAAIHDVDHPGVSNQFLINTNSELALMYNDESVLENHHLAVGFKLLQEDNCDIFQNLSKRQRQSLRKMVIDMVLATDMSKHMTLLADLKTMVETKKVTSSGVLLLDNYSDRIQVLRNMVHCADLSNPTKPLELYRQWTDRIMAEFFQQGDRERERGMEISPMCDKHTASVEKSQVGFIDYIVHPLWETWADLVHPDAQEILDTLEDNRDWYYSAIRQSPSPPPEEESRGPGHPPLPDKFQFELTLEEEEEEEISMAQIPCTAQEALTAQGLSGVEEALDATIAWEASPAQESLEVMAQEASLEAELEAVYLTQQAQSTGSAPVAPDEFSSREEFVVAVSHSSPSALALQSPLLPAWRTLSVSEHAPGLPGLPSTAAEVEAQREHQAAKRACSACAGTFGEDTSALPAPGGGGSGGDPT

[14] = target: Prothrombin (Homo sapiens, UniProt P00734); format: functional
[15] = target: Voltage-gated inwardly rectifying potassium channel KCNH2 (Homo sapiens, UniProt Q12809); format: functional
Sequence of Voltage-gated inwardly rectifying potassium channel KCNH2 (Q12809 whole entry): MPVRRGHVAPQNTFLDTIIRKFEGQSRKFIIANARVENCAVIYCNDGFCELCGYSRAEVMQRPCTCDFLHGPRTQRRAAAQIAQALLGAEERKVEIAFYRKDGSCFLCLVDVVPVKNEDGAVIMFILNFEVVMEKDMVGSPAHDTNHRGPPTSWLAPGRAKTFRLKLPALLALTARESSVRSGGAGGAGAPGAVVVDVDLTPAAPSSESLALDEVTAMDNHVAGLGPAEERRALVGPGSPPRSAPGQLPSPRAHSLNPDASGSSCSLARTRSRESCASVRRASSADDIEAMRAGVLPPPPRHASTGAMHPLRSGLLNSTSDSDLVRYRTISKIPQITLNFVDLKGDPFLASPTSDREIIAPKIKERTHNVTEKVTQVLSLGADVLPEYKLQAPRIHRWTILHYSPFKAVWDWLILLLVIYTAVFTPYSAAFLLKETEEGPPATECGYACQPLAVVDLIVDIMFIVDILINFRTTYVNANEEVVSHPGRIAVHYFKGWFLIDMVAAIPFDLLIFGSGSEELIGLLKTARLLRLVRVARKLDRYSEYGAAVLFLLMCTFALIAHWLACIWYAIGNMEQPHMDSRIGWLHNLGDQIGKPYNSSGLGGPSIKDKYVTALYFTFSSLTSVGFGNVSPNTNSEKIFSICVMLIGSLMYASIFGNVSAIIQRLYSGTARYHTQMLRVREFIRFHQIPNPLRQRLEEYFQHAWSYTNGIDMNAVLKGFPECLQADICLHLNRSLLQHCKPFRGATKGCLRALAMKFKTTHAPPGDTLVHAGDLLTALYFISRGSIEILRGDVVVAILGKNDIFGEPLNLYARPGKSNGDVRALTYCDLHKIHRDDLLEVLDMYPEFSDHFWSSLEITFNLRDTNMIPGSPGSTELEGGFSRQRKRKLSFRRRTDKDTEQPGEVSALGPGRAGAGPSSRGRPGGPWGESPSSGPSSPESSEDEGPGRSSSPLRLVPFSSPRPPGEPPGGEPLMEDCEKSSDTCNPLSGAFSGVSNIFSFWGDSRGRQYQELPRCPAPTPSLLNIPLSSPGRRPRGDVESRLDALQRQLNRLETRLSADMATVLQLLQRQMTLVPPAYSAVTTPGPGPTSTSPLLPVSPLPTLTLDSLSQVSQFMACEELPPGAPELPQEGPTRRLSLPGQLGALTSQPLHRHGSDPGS
Further: assay procedure not described here.

Sequence of Acetylcholinesterase (P22303 whole entry): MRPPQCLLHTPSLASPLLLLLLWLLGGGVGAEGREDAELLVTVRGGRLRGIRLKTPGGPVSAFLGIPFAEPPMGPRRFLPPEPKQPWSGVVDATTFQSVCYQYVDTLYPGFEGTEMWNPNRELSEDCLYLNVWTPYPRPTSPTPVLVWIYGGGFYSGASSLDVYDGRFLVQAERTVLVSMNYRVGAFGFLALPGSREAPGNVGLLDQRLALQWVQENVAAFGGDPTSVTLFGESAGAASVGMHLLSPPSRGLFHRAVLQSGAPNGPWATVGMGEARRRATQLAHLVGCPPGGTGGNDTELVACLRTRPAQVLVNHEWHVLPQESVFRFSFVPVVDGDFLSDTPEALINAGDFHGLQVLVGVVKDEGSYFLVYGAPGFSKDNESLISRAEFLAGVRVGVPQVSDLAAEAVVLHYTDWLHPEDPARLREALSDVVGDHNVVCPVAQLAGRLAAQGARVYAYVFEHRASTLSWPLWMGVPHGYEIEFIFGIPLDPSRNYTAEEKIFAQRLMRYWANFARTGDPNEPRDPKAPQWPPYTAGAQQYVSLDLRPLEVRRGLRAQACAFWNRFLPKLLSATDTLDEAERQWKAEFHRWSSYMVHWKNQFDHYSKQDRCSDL

`C[C@@H]1C[C@H]2[C@@H]3C[C@H](F)C4=CC(=O)C=C[C@]4(C)[C@@]3(F)[C@@H](O)C[C@]2(C)[C@@]1(OC(=O)c1ccco1)C(=O)SCF` [FLUTICASONE FUROATE] showed an AC50 [1] of over 30 µM, an AC50 [2] of over 30 µM and an AC50 [3] of over 30 µM. The AC50 [4] was over 30 µM, the AC50 [5] was over 30 µM and the AC50 [6] was over 30 µM. It also gave an AC50 [7] of over 30 µM, an AC50 [8] of over 30 µM and an AC50 [9] of over 30 µM. For the same compound, the AC50 [10] was over 30 µM, the AC50 [11] was over 30 µM and the AC50 [12] was over 30 µM. It also gave an AC50 [13] of over 30 µM, an AC50 [14] of over 30 µM and an AC50 [15] of over 30 µM.

With `O=C(CCC/C=C\C[C@@H]1[C@@H](CC[C@@H](O)CCc2ccccc2)[C@H](O)C[C@@H]1O)OCCCCO[N+](=O)[O-]` [LATANOPROSTENE BUNOD] the AC50 [1] was over 30 µM, the AC50 [2] was over 10 µM and the AC50 [3] was over 30 µM. It also gave an AC50 [4] of over 30 µM, an AC50 [5] of over 30 µM and an AC50 [6] of over 30 µM. For the same compound, the AC50 [8] was over 30 µM, the AC50 [9] was over 30 µM and the AC50 [10] was over 30 µM. For the same compound, the AC50 [11] was over 30 µM, the AC50 [12] was over 30 µM and the AC50 [13] was over 30 µM. For the same compound, the AC50 [14] was over 30 µM.

With `COC(=O)C[C@](O)(CCCC(C)(C)O)C(=O)O[C@@H]1C(OC)=C[C@]23CCCN2CCc2cc4c(cc2[C@H]13)OCO4` [OMACETAXINE MEPESUCCINATE] the AC50 [1] was over 30 µM, the AC50 [2] was over 30 µM and the AC50 [3] was over 30 µM. The AC50 [4] was over 30 µM, the AC50 [5] was over 30 µM and the AC50 [6] was over 30 µM. It also gave an AC50 [8] of over 30 µM, an AC50 [9] of over 30 µM and an AC50 [10] of over 30 µM. The AC50 [11] was over 30 µM, the AC50 [12] was over 30 µM and the AC50 [13] was over 30 µM. It also gave an AC50 [14] of over 30 µM and an AC50 [15] of over 30 µM.

`COc1cc(C)c2c(Oc3cccc(C(F)(F)F)c3)c(OC)cc(NC(C)CCCN)c2n1` (stereo not drawn) [TAFENOQUINE] gave an AC50 [1] of over 30 µM, an AC50 [2] of over 3 µM and an AC50 [3] of over 30 µM. The AC50 [4] was over 30 µM, the AC50 [5] was over 30 µM and the AC50 [6] was 11.3 µM. It also gave an AC50 [8] of over 30 µM, an AC50 [9] of over 30 µM and an AC50 [10] of 5.98 µM. It also gave an AC50 [11] of over 30 µM, an AC50 [12] of over 3 µM and an AC50 [13] of over 30 µM. It also gave an AC50 [14] of over 30 µM.

Work on `O=S1(=O)CCN(CN2CCS(=O)(=O)NC2)CN1` [TAUROLIDINE] yielded an AC50 [1] of over 30 µM, an AC50 [2] of over 30 µM and an AC50 [3] of over 30 µM. It also gave an AC50 [4] of over 30 µM, an AC50 [5] of over 30 µM and an AC50 [6] of over 30 µM. For the same compound, the AC50 [7] was over 30 µM, the AC50 [8] was over 30 µM and the AC50 [9] was over 30 µM. For the same compound, the AC50 [10] was over 30 µM, the AC50 [11] was over 30 µM and the AC50 [12] was over 30 µM. It also gave an AC50 [13] of over 30 µM, an AC50 [14] of over 30 µM and an AC50 [15] of over 30 µM.

`COc1ccc2c(C(=S)N(C)CC(=O)O)cccc2c1C(F)(F)F` [TOLRESTAT] gave an AC50 [1] of over 30 µM, an AC50 [2] of over 30 µM and an AC50 [3] of over 30 µM. For the same compound, the AC50 [4] was over 30 µM, the AC50 [5] was over 30 µM and the AC50 [6] was over 30 µM. For the same compound, the AC50 [8] was over 30 µM, the AC50 [9] was over 30 µM and the AC50 [10] was over 30 µM. It also gave an AC50 [11] of over 30 µM, an AC50 [12] of over 30 µM and an AC50 [13] of over 30 µM. It also gave an AC50 [14] of over 30 µM.
